Measurements taken from patent US20100255099A1, “CLAVULANATE FORMULATION FOR NEUROPROTECTION AND TREATMENT OF NEURODEGENERATIVE DISORDERS” (REXAHN PHARMACEUTICALS, INC., priority 2007, published 2010).
“Also recorded” adds a separate entry of the source. Where two headings read alike, the source gives them in different places.

How the values were obtained:
[1] = test system: TH-positive neurons in the substantia nigra pars compacta (SNpc); assay: Tyrosine hydroxylase immunohistochemistry in MPTP model; type: in vivo, C57BL/6 mice; settings: for TH-positive (TH-IR) neurons within the SNpc: clavulanate treated groups (ip and ga) compared to MPTP-saline group
Description: The neuroprotectant effects of clavulanate was tested in an MPTP (1-methyl-4-phenyl-1,2,3,6-tetrahydropyridine) induced Parkinson's disease animal model. Eight week old male C57BL/6 mice were separated into six groups of ten. Three times (one time per day) prior to MPTP treatment, ten animals were treated with clavulanate at a particular dose and route of administration (Groups 2-5) while the remaining animals (groups 1 and 6) were given saline vehicle. (See Table 13.) MPTP was given four times intraperitoneally at a dose of 20 mg/kg (total of 80 mg/kg). Two times (one time per day) post MPTP treatment, animals were given another administration of clavulanate or saline vehicle. Animals were tested for changes in behavior. Animals that survived MPTP treatment were sacrificed 7 days later and their brains examined for histological changes in the substantia nigra pars compacta (SNpc). Ten untreated control animals of the same weight and age as the experimental animals were sacrificed and their hippocampal morphology used as a standard for comparison.
(§1) On completion of the experiment, animals were anesthetized by IP injection of 10 mg/kg pentobarbital sodium, then perfused transcardially with 10 ml of PBS at pH 7.4, follow by 50 ml of 4% paraformaldehyde in PBS over a 5 min period. The brains were removed from the skull and post-fixed by immersion in the same fixative solution for 4 h, then transferred to 30% sucrose in PBS. After equilibration in the sucrose solution, coronal sections were cut using the cryocut at a thickness of 40 μm into storing solution and stored at 4° C. prior to staining.
Immunohistochemistry was carried out on free floating sections. All stains were carried out on a 1 in 5 series of sections. All sections were stained simultaneously using the same solutions of antibodies and ensuring that incubation times and washes were the same for each brain. […]
Neurons were counted using the optical fractionator, an unbiased method for cell counting that is not affected by either the volume of reference or the size of the counted elements (neurons). […]

[2] = test system: cresyl violet positive neurons in the hippocampal CA3 region; assay: Kainate animal model: cresyl violet staining of hippocampus; type: in vivo, Sprague Dawley rats
Description: (§2) As a neuroprotectant, clavulanate was tested in the Kainate animal model. Thirty male Sprague Dawley rats weighing 300-350 grams were separated into three groups. One hour prior to kainate treatment, seven animals are treated with clavulanate at an IP dose of 10 μg/kg while the remaining animals were given saline vehicle. Kainate was given IP at a dose of 20 mg/kg to the seven clavulanate treated animals and 13 saline vehicle treated animals. […] Sixty minutes post kainate treatment the animals were given another IP injection (10 μg/kg) of clavulanate or saline vehicle. Animals that survived kainate treatment were sacrificed seven days later and their brains examined for histological changes in the hippocampus. Ten untreated control animals of the same weight and age as the experimental animals were sacrificed and their hippocampal morphology used as a standard for comparison.
as §1, with “with 100” for “with 10”, “by 250” for “by 50”, “staining. All stains are carried out on a 1 in 5 series of sections. […]” for “staining.”
To evaluate the effects of clavulanate against kainate induced neuronal damage, the measurement of neuronal number was performed using an image analyzing system equipped with a computer-based CCD camera (Multiscan, Fullerton, Calif.). The number of cresyl violet positive neurons was counted in a 1 mm diameter of hippocampus in five sections per animal. […] Data are expressed as the mean±SEM. The data were evaluated by a one-way ANOVA SPSS program and the means assessed using Duncan's multiple-range test. […]

[3] = Stability of clavulanate during moisture removal after wet granulation; type: physicochemical
Description: Potassium clavulanate is an exceptionally difficult material to formulate, being extremely moisture and heat sensitive. Degradation readily occurs in the presence of water and aqueous media. Several methods were tested to find a suitable condition for removing moisture after wet granulation that keeps the active ingredient clavulanate intact. The material in sample C was prepared by wet granulation and spheronized. The moisture containing spheronized formulation was transferred to trays and subjected to different storage conditions for the removal of moisture.
Lyophilization retained 97% of the active ingredient after 21 hrs of the freeze drying process.

[4] = test system: Kainate animal model; assay: Kainate animal model: seizure and survival; type: in vivo, Sprague Dawley rats
Description: as §2

[5] = doses ranging from 10 ng to 10 μg/kg (i.p.); cited from earlier work
[6] = rats, i.p. dose of 1 μg/kg; cited from earlier work
[7] = administered i.p. at less than 1 μg/kg; cited from earlier work
[8] = Moisture sorption of potassium clavulanate powder at different relative humidity; type: physicochemical; settings: for Moisture Content (%) (g H2O/g dry solid) / Moisture Content (%) (g H2O/g wet solid): 96 hr
Description: Potassium clavulanate in its solid form is both hygroscopic and unstable in the presence of water vapor. A stability study of clavulanate was conducted with monitoring by chromatographic methods. The static or equilibrium approach was approached by storing samples in chambers at different relative humidity in an attempt to generate a sorption isotherm. The sorption isotherm represents the quantitative relationship between the equilibrium moisture content and relative humidity (RH) in the atmosphere.

[9] = Pharmacokinetic study in beagle dogs; type: in vivo; settings: dog, plasma; for Vd: iv, 4.2 mg
Description: The amount of clavulanate in the plasma of beagle dogs was measured by LC/MS/MS method. The chromatographic separation of the analytes was performed on a reverse-phase PLRP-S polymeric column. The retention time of potassium clavulanate and tazobactam (reference compound) were 8.51 and 8.54 min, respectively. The overall chromatographic run time was 25 min. The M/S analysis was performed on an Applied Biosystems' API 2000 triple-quardrupole mass spectrometer by multiple reaction monitoring in negative electrospray ionization mode. The mass spectral data were analyzed by Analyst 1.4.1 (Applied Biosystems). The pharmacokinetic analysis was conducted by using PK Solutions 2.0 (Summit Research Services).
Three male Beagle dogs were used throughout the study in a cross-over design with washout period between treatments. […] The animals were fasted overnight before the administration of the test substance and fed 4 hr post-dosing. During all the treatments, blood samples (1.5 ml) were withdrawn from the cephalic vein by venipuncture into heparinized tubes at 0, 5, 15, 30 min, 1, 1.5, 2, 2.5, 3, 4, 6, 9 and 12 hr after dosing. Plasma was obtained via centrifugation at 3,000 rpm for 10 min and analyzed by an LC-MS/MS system.
Three male beagle dogs were used throughout the study in a cross-over design with washout period between treatments. The dogs were given the test substances as aqueous solution via intravenous routes with no shorter than 24 hr washout period between dosing. The animals were fasted overnight before the administration of the test substance and fed 4 hr post-dosing. During all the treatments, blood samples (1.5 ml) were withdrawn from the cephalic vein by venipuncture into heparinized tubes at 0, 5, 15, 30 min, 1, 1.5, 2, 2.5, 3, 4, 6, 9 and 12 hr after dosing. Plasma was obtained via centrifugation at 3,000 rpm for 10 min and analyzed by an LC-MS/MS system.
Four male beagle dogs were used throughout the study in a cross-over design with washout period between treatments. The dogs were given the test substances as ER tablet of Example 3C via oral routes with no shorter than 24 hr washout period between dosing. The animals were fasted overnight before the administration of the test substance and fed 4 hr post-dosing. During all the treatments, blood samples (1.5 ml) were withdrawn from the cephalic vein by venipuncture into heparinized tubes at 1, 2, 3, 4, 5, 6, 7, 8, 9, 10, 11 and 12 hr after dosing. Plasma was obtained via centrifugation at 3,000 rpm for 10 min and analyzed by an LC-MS/MS system.

[10] = compared to controls given saline only
[11] = IV aqueous solution, dose 4.2 mg, male beagle dogs

## O=C(O)[C@H]1/C(=C/CO)O[C@@H]2CC(=O)N21 [clavulanate]
[1]
  TH-positive (TH-IR) neurons within the SNpc: significantly protected; also recorded: preservation
[1]; listed as Clavulanate
  TH-positive (TH-IR) neurons within the SNpc: well preserved
[1]; following gavage treatment
  protection of TH-positive SNpc neurons, gavage versus ip: greater protection
[2]; CA3 stratum pyramidale, 7 days after kainate, compared to the normal group
  pyramidal neurons positive to cresyl violet: 88.7%
[2]; compared to animals treated with kainate-saline
  morphology of neurons in CA3: normal morphology
[2]; kainate treated rats
  neuroprotective effect on kainate induced hippocampal cell death (CA3 region): strong neuroprotective effect; also recorded: significant neuroprotective effect
[3]; Freeze dry: sub-zero, 21 hr
  Clavulanate (%): 97%
[3]; drying in a fluid bed system, 1.5 hr
  degradation: 13%
[4]; [10]
  onset to seizure: longer onset to seizure
  seizure activity: mild seizure activity
[4]; kainate 20 mg/kg IP, clavulanate 10 μg/kg IP 1 hr before and 60 min after kainate
  Survival rate (%): 100%
[4]; seizure rating scale (Sperk et al., 1983), 60-120 min after kainate treatment
  Seizure rate: 0-1
[4]; within 24 hrs of kainate treatment
  fatality: no fatality

## O=C(O)[C@H]1/C(=C/CO)O[C@@H]2CC(=O)N21 [clavulanic acid]
[5]
  CNS activity and behavior: alter CNS activity and behavior
[6]
  neuroprotectant activity: potent neuroprotectant activity
[7]
  anxiolytic activity: anxiolytic activity

## O=C(O)[C@H]1/C(=C/CO)O[C@@H]2CC(=O)N21 [potassium clavulanate]
[8]
  humidity above which deliquescence would eventually occur: above 40 % relative humidity
[8]; 33% RH
  Moisture Content (%) (g H2O/g dry solid): 0.713%
  Moisture Content (%) (g H2O/g wet solid): 0.708%
[8]; 35% RH
  Moisture Content (%) (g H2O/g dry solid): 0.737%
  Moisture Content (%) (g H2O/g wet solid): 0.733%
[8]; 37% RH
  Moisture Content (%) (g H2O/g dry solid): 0.848%
  Moisture Content (%) (g H2O/g wet solid): 0.842%
[8]; 39% RH
  Moisture Content (%) (g H2O/g dry solid): 1.280%
  Moisture Content (%) (g H2O/g wet solid): 1.264%
[8]; 41% RH
  Moisture Content (%) (g H2O/g dry solid): 1.566%
  Moisture Content (%) (g H2O/g wet solid): 1.542%
[8]; 43% RH
  Moisture Content (%) (g H2O/g dry solid): 4.140%
  Moisture Content (%) (g H2O/g wet solid): 3.976%
[8]; 45% RH
  Moisture Content (%) (g H2O/g dry solid): 5.018%
  Moisture Content (%) (g H2O/g wet solid): 4.778%
[8]; 47% RH
  Moisture Content (%) (g H2O/g dry solid): 14.708%
  Moisture Content (%) (g H2O/g wet solid): 12.823%
[8]; dry potassium clavulanate exposed to about 50% relative humidity
  rate of moisture absorption: approximately 1.44 % per hour
[8]; exposed to about 35% or less of relative humidity for 96 hr
  moisture content on a dry weight basis: < 1%
[3]; storage at 30° C. for 69 hr (storage 1)
  degradation: up to 45%
[3]; storage at 45° C. for 75 hr (storage 2)
  degradation: ≤ 60%
[9]; [11]
  AUC(0-t): 684 ng·h/mL
  MRT inf: 39 min
  clearance: 96.7 mL/min
[9]; IV aqueous solution, dose 4.2 mg, male beagle dogs, read-out: F (bioavailability)
  bioavailability: 100%
[9]; IV aqueous solution, dose 4.2 mg, male beagle dogs, read-out: t1/2 (converted)
  half-life: 31.2 min
[9]; male, beagle, IV aqueous solution, dose 4.2 mg, male beagle dogs, read-out: Vd
  Vd: 4.4 L
[9]; male, beagle, IV aqueous solution, dose 4.2 mg, male beagle dogs, read-out: Vss
  Vd: 3.8 L
[9]; male, beagle, po, given orally, fasted animals, read-out: average bioavailability
  bioavailability: 30 to 41%
[9]; male, beagle dogs, read-out: apparent terminal half-life (converted)
  half-life: 30 min
